Reference: patent US9486544B2, “Manganese chelates and their use as contrast agents in magnetic resonance imaging (MRI)” (GE Healthcare AS, priority 2009, dated 2016)
Read-outs that look alike come from different tables or passages of the source.

Columns and labels:
Assay type in all cases: physicochemical
[1] = Relaxivity analysis in water; settings: degassed Millipore water, 0.05 to 1 mM complex
Experimental: (§1) The relaxivity measurements were performed with a range of 0.05 to 1 mM complex solutions on a Bruker Minispec PC 120b-NA 770, at 20 MHz or a Bruker Minispec Mq 60m at 60 MHz and 37° C. The solutions were obtained by dissolving the appropriate amount of chelate in degassed Millipore water or human serum.

[2] = Kinetic stability: exchange reaction with Zn2+ in acetate buffer, monitored by relaxivity; settings: acetate buffer with Zn2+ challenge, acetate buffer 10 mM, 25° C., chelate approx. 0.5 mM, read-out: Dissociation Half life t1/2
Experimental: The kinetic stability of manganous chelates was characterized by the rates of exchange reaction with Zn^2+, in acetate buffer (10 mM) set to various pH. The increase of free manganous ions was monitored using a Bruker Minispec PC 120b-NA 770, at 20 MHz and 25° C. The total ionic strength was adjusted to 0.5M with KCl. The chelate concentration was approximately 0.5 mM for all measurements.
The change in concentration of chelated manganese, upon challenge with zinc ions, was monitored spectroscopically. When zinc displaces a manganous ion a net increase in relaxivity was observed as the free manganous ion has a relaxivity of ˜10 mM^−1s^−1, whereas the studied manganese chelates have a lower relaxivity.
The pseudo first-order rate constants (kobs) were calculated by fitting the relaxivity data to the following equation: […] in which At, A0, and Ae are the relaxivity values at time t, the start of the reaction, and at equilibrium, respectively. The dissociation half life was derived from kobs.

[3] = Relaxivity analysis in human serum; settings: 0.05 to 1 mM complex
Experimental: as §1

[4] = Water exchange measurements (variable-temperature 17O NMR); settings: TRIS 0.05 M pH 7.4, 6 to 15 mM complex
Experimental: Water Exchange Measurements
The water exchange measurements were performed with 6 to 15 mM complex solutions. The solutions were obtained by dissolving the appropriate amount of complex in 0.6 mL of buffer solution (TRIS, 0.05 M, pH 7.4 in degassed Millipore water at ca. 3 atom % ^17O-enrichment); Variable-temperature Fourier transform ^17O NMR spectra were recorded at a frequency of 40.7 MHz on a Varian Unity 300 MHz spectrometer. The temperatures were measured using methanol and ethylene glycol standards. The temperature dependence of the ^17O line broadening for each system was measured over a temperature range from 273.7 to 356.1 K. Each temperature was calibrated using a methanol or ethylene glycol standard.

In the case of O=C(O)CN1CCN2CC(=O)[O][Mn][O]C(=O)CN(CC1)Cc1cccc(n1)C2 [Compound disclosed in US5334371, reference compound], the “Relaxivity Water @ 20 MHz, 37° C.” value [1] is reported as 1.3 mM⁻¹ s⁻¹.
Work on O=C1CN2CCNCCN(CC(=O)[O][Mn][O]1)Cc1cccc(n1)C2 [Compound disclosed in US5334371, reference compound] yielded a half-life at 0.5 mM ([2]; pH 4.6, pH 4.6, [Zn] 10 mM) of 3 min, a half-life at 0.5 mM ([2]; pH 5, pH 5.0, [Zn] 10 mM) of 6 min and a half-life at 0.5 mM ([2]; pH 5.2, pH 5.2, [Zn] 10 mM) of 9 min. For the same compound, the half-life at 0.5 mM ([2]; pH 5.2, pH 5.2, [Zn] 20 mM) was 10 min, the half-life at 0.5 mM ([2]; pH 5.4, pH 5.4, [Zn] 10 mM) was 15 min and the half-life at 0.5 mM ([2]; pH 5.6, pH 5.6, [Zn] 10 mM) was 22 min. For the same compound, the half-life at 0.5 mM ([2]; pH 5.6, pH 5.6, [Zn] 20 mM) was 23 min.
In the case of CN1CCN2CC(=O)[O][Mn][O]C(=O)CN(CC1)Cc1cccc(n1)C2 [Example 1, manganese(II) complex of 3,6,9,15-tetraaza-3,9-bis-(carboxymethyl)-6-methyl-bicyclo[9.3.1]pentadeca-1(14),11(15),12-triene], the “Relaxivity Human Serum @ 60 MHz, 37° C.” value [3] is reported as 4.6 mM⁻¹ s⁻¹, the “Relaxivity Water @ 20 MHz, 37° C.” value [1] is reported as 2.4 mM⁻¹ s⁻¹ and the half-life at 0.5 mM ([2]; pH 4.6, pH 4.6, [Zn] 10 mM) is reported as 10 min. The half-life at 0.5 mM ([2]; pH 5, pH 5.0, [Zn] 10 mM) was 21 min, the half-life at 0.5 mM ([2]; pH 5.2, pH 5.2, [Zn] 10 mM) was 30 min and the half-life at 0.5 mM ([2]; pH 5.2, pH 5.2, [Zn] 20 mM) was 37 min. For the same compound, the half-life at 0.5 mM ([2]; pH 5.4, pH 5.4, [Zn] 10 mM) was 44 min, the half-life at 0.5 mM ([2]; pH 5.6, pH 5.6, [Zn] 10 mM) was 72 min and the half-life at 0.5 mM ([2]; pH 5.6, pH 5.6, [Zn] 20 mM) was 77 min. For the same compound, the Water residence time [4] was 16 ns.
For CN1CCN2CC(=O)[O][Mn][O]C(=O)CN(CC1)Cc1cc(NC(=O)c3cc(C(=O)Nc4cc5nc(c4)CN4CCN(C)CCN(CC(=O)[O][Mn][O]C(=O)C4)C5)cc(C(=O)Nc4cc5nc(c4)CN4CCN(C)CCN(CC(=O)[O][Mn][O]C(=O)C4)C5)c3)cc(n1)C2 [Example 2, manganese(II) complex of N1,N3,N5-tris[3,6,9,15-tetraaza-3,9-bis-(carbonylmethyl)-6-methyl-bicyclo[9.3.1]pentadeca-13-trienyl]benzene-1,3,5-tricarboxamide], the “Relaxivity Human Serum @ 60 MHz, 37° C.” value [3] was 10.5 mM⁻¹ s⁻¹, the “Relaxivity Water @ 20 MHz, 37° C.” value [1] was 3.8 mM⁻¹ s⁻¹ and the Water residence time [4] was 14 ns.
For CN1CCN2CC(=O)[O][Mn][O]C(=O)CN(CC1)Cc1cc(NC(=O)c3ccccc3)cc(n1)C2 [Example 6, manganese complex of N,13-Benzamide-3,6,9,15-tetraaza-3,9-bis-(carboxymethyl)-6-methyl-bicyclo[9.3.1]pentadeca-1(14),11(15),12-triene], the “Relaxivity Human Serum @ 60 MHz, 37° C.” value [3] was 8.8 mM⁻¹ s⁻¹.
